From US8158628B2, “Sulfonylated 1,2,3,4-tetrahydropyrrolo[1,2-a]pyrazine compounds and their use as pharmaceuticals” (Gruenenthal GmbH, priority 2009, dated 2012)

Columns and labels:
human B1R = biological target: T1, human B1R (Homo sapiens, UniProt P46663); test: FLIPR Ca2+ functional assay, B1R antagonism, human B1R in CHO K1 cells; assay type: cell-based; settings: test substance 10 μM; hB1R CHO K1 cells; agonist Lys-Des-Arg9 bradykinin at EC80; % of maximum achievable inhibition
T1 construct: expressed in transfected cells; host or cells: CHO K1 cells (Chinese hamster ovary), stably transfected
T1 sequence (P46663 1-353): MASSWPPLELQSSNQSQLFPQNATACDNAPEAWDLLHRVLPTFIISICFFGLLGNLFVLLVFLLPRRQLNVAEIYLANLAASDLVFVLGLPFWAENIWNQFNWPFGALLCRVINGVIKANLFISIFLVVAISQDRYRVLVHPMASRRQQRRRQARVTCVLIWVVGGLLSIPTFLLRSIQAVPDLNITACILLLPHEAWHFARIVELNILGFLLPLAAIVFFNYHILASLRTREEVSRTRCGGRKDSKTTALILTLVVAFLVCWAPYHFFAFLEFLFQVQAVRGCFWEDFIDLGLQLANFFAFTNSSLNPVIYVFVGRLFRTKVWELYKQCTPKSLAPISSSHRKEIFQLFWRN
Outline: (§1)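 IC50 values come from varied compound concentrations applied 10-20 min before an EC80 agonist challenge, with Des-Arg9 bradykinin for rat and Lys-Des-Arg9 bradykinin for human receptor. Ca2+ influx in Fluo-4-loaded CHO K1 transfectants was measured by FLIPR peak fluorescence. Data are % inhibition vs maximum, n=2-3, N>=2.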

B1R of the rat = biological target: T2, B1R of the rat (Rattus norvegicus, UniProt P97583); test: FLIPR Ca2+ functional assay, B1R antagonism, rat B1R in CHO K1 cells; assay type: cell-based; settings: test substance 10 μM; rB1R CHO K1 cells; agonist Des-Arg9 bradykinin at EC80; % of maximum achievable inhibition
T2 construct: expressed in transfected cells; host or cells: CHO K1 cells (Chinese hamster ovary), stably transfected
T2 sequence (P97583 1-337): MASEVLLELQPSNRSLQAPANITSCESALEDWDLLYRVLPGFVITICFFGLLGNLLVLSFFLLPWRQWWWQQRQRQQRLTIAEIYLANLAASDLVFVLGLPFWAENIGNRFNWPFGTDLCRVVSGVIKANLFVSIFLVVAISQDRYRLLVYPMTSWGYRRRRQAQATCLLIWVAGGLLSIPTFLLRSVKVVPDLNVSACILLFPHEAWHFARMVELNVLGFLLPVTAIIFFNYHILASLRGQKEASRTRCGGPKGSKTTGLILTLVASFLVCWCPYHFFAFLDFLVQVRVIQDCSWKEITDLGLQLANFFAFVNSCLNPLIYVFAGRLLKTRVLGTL
Outline: as §1

**Q.** Which results are given for `COc1ccc2cc(S(=O)(=O)N3CCn4cccc4C3CC(=O)NC3CCc4cc(CN5CCCCC5)ccc4C3)ccc2c1` (centres unmarked) [Example 8, 2-(2-(6-Methoxynaphthalen-2-ylsulfonyl)-1,2,3,4-tetrahydropyrrolo[1,2-a]pyrazin-1-yl)-N-(6-(piperidin-1-ylmethyl)-1,2,3,4-tetrahydronaphthalen-2-yl)acetamide]?
**A.** inhibition at 10 µM (human B1R): 99.9%; inhibition at 10 µM (B1R of the rat): 104%

**Q.** Which results are given for `COc1ccc2cc(S(=O)(=O)N3CCn4cccc4C3CC(=O)NC3CCc4cc(CN5C6CCCC5CC6)ccc4C3)ccc2c1` (centres unmarked) [Example 103, N-[6-(8-Azabicyclo[3.2.1]octan-8-yl-methyl)-1,2,3,4-tetrahydro-naphthalen-2-yl]-2-[2-[(6-methoxy-naphthalen-2-yl)sulfonyl]-1,2,3,4-tetrahydro-pyrrolo[1,2-a]pyrazin-1-yl]-acetamide]?
**A.** inhibition at 10 µM (human B1R): 100%; inhibition at 10 µM (B1R of the rat): 102%

**Q.** With `Cc1ccc(S(=O)(=O)N2CCn3cccc3C2CC(=O)NC2CCCc3cc(CN4CCOCC4)ccc32)cc1Cl` (centres unmarked) [Example 57, 2-[2-[(3-Chloro-4-methyl-phenyl)sulfonyl]-1,2,3,4-tetrahydro-pyrrolo[1,2-a]pyrazin-1-yl]-N-[6-(morpholin-4-yl-methyl)-1,2,3,4-tetrahydro-naphthalen-1-yl]-acetamide] as the molecule, how does the inhibition at 10 µM (human B1R) read?
**A.** 98.5%

**Q.** What about the inhibition at 10 µM (B1R of the rat) of the same molecule?
**A.** 101%

**Q.** How did the inhibition at 10 µM (human B1R) turn out when `COc1cc(C)c(S(=O)(=O)N2CCn3cccc3C2COCC(=O)N2[C@@H]3CC[C@H]2C[C@H](Oc2ccncc2)C3)c(C)c1` (stereo partly drawn) [Example 23, 2-((2-(4-Methoxy-2,6-dimethylphenylsulfonyl)-1,2,3,4-tetrahydropyrrolo[1,2-a]pyrazin-1-yl)methoxy)-1-((1R,3S,5S)-3-(pyridin-4-yloxy)-8-azabicyclo[3.2.1]octan-8-yl)ethanone] was run?
**A.** 100%

**Q.** What about the inhibition at 10 µM (B1R of the rat) of the same molecule?
**A.** 108%

**Q.** How did the inhibition at 10 µM (human B1R) turn out when `Cc1ccc(S(=O)(=O)N2CCn3cccc3C2CC(=O)NC2CCc3cc(CN4CCN(C)CC4)ccc3C2)cc1Cl` (centres unmarked) [Example 61, 2-[2-[(3-Chloro-4-methyl-phenyl)sulfonyl]-1,2,3,4-tetrahydro-pyrrolo[1,2-a]pyrazin-1-yl]-N-[6-[(4-methyl-piperazin-1-yl)-methyl]-1,2,3,4-tetrahydro-naphthalen-2-yl]-acetamide] was run?
**A.** 99.7%

**Q.** What about the inhibition at 10 µM (B1R of the rat) of the same molecule?
**A.** 100%

**Q.** `COc1cc(C)c(S(=O)(=O)N2CCn3cccc3C2COCC(=O)N2CCC3(CCNC3)CC2)c(C)c1` (centres unmarked) [Example 22, 2-((2-(4-Methoxy-2,6-dimethylphenylsulfonyl)-1,2,3,4-tetrahydro-pyrrolo[1,2-a]pyrazin-1-yl)methoxy)-1-(2,8-diazaspiro[4.5]decan-8-yl)ethanone] was tested. Which inhibition at 10 µM (human B1R) did it give?
**A.** 99.6%

**Q.** And the inhibition at 10 µM (B1R of the rat)?
**A.** 113%

**Q.** How did the inhibition at 10 µM (human B1R) turn out when `O=C(CC1c2cccn2CCN1S(=O)(=O)c1cccc(C(F)(F)F)c1)NC1CCc2cc(CN3CCCCC3)ccc2C1` (centres unmarked) [Example 30, N-(6-(piperidin-1-ylmethyl)-1,2,3,4-tetrahydro-naphthalen-2-yl)-2-(2-(3-(trifluoromethyl)-phenylsulfonyl)-1,2,3,4-tetrahydropyrrolo-[1,2-a]pyrazin-1-yl)acetamide] was run?
**A.** 99.8%

**Q.** What about the inhibition at 10 µM (B1R of the rat) of the same molecule?
**A.** 102%

**Q.** How did the inhibition at 10 µM (human B1R) turn out when `COc1cc(C)c(S(=O)(=O)N2CCn3cccc3C2COCC(=O)N(C)C2CCN(c3ccncc3)CC2)c(C)c1` (centres unmarked) [Example 39, 2-[[2-[(4-Methoxy-2,6-dimethyl-phenyl)sulfonyl]-1,2,3,4-tetrahydro-pyrrolo[1,2-a]pyrazin-1-yl]-methoxy]-N-methyl-N-(1-pyridin-4-yl-piperidin-4-yl)-acetamide] was run?
**A.** 99.6%

**Q.** And the inhibition at 10 µM (B1R of the rat)?
**A.** 105%

**Q.** `COc1cc(C)c(S(=O)(=O)N2CCn3cccc3C2COCC(=O)N2CCC3(CC2)CCN(c2ccncc2)CC3)c(C)c1` (centres unmarked) [Example 10, 2-((2-(4-Methoxy-2,6-dimethylphenylsulfonyl)-1,2,3,4-tetrahydropyrrolo[1,2-a]pyrazin-1-yl)methoxy)-1-(9-(pyridin-4-yl)-3,9-diazaspiro[5.5]undecan-3-yl)ethanone] was tested. Which inhibition at 10 µM (human B1R) did it give?
**A.** 99.8%

**Q.** What about the inhibition at 10 µM (B1R of the rat) of the same molecule?
**A.** 103%

**Q.** `COc1ccc2cc(S(=O)(=O)N3CCn4cccc4C3CC(=O)NC3CCc4cc(CN5CCCc6ccccc65)ccc4C3)ccc2c1` (centres unmarked) [Example 105, 2-[2-[(6-Methoxy-naphthalen-2-yl)sulfonyl]-1,2,3,4-tetrahydro-pyrrolo[1,2-a]pyrazin-1-yl]-N-[6-(1,2,3,4-tetrahydro-quinolin-1-yl-methyl)-1,2,3,4-tetrahydro-naphthalen-2-yl]-acetamide] was tested. Which inhibition at 10 µM (human B1R) did it give?
**A.** 99.8%

**Q.** And the inhibition at 10 µM (B1R of the rat)?
**A.** 103%

**Q.** `Cc1ccc(S(=O)(=O)N2CCn3cccc3C2CC(=O)NC2CCCc3cc(CN4CCCCC4)ccc32)cc1Cl` (centres unmarked) [Example 56, 2-[2-[(3-Chloro-4-methyl-phenyl)sulfonyl]-1,2,3,4-tetrahydro-pyrrolo[1,2-a]pyrazin-1-yl]-N-[6-(piperidin-1-yl-methyl)-1,2,3,4-tetrahydro-naphthalen-1-yl]-acetamide] was tested. Which inhibition at 10 µM (human B1R) did it give?
**A.** 99.7%

**Q.** What about the inhibition at 10 µM (B1R of the rat) of the same molecule?
**A.** 98%

**Q.** For `O=C(CC1c2cccn2CCN1S(=O)(=O)c1cccc(C(F)(F)F)c1)NC1CCc2cc(CN3C4CCCC3CC4)ccc2C1` (centres unmarked) [Example 88, N-[6-(8-Azabicyclo[3.2.1]octan-8-yl-methyl)-1,2,3,4-tetrahydro-naphthalen-2-yl]-2-[2-[[3-(trifluoromethyl)phenyl]sulfonyl]-1,2,3,4-tetrahydro-pyrrolo[1,2-a]pyrazin-1-yl]-acetamide], which inhibition at 10 µM (human B1R) is on record?
**A.** 99.9%

**Q.** And the inhibition at 10 µM (B1R of the rat)?
**A.** 96.5%

**Q.** Which inhibition at 10 µM (human B1R) does the source give for `CN1CCN(Cc2ccc3c(c2)CCCC3NC(=O)CC2c3cccn3CCN2S(=O)(=O)c2cccc(C(F)(F)F)c2)CC1` (centres unmarked) [Example 59, N-[6-[(4-Methyl-piperazin-1-yl)-methyl]-1,2,3,4-tetrahydro-naphthalen-1-yl]-2-[2-[[3-(trifluoromethyl)phenyl]sulfonyl]-1,2,3,4-tetrahydro-pyrrolo[1,2-a]pyrazin-1-yl]-acetamide] here?
**A.** 99.8%

**Q.** And the inhibition at 10 µM (B1R of the rat)?
**A.** 76.2%

**Q.** With `CCC(C)NCc1ccc2c(c1)CCCC2NC(=O)CC1c2cccn2CCN1S(=O)(=O)c1ccc(C)c(Cl)c1` (centres unmarked) [Example 132, 2-[2-[(3-Chloro-4-methyl-phenyl)sulfonyl]-1,2,3,4-tetrahydro-pyrrolo[1,2-a]pyrazin-1-yl]-N-[6-[(1-methyl-propylamino)-methyl]-1,2,3,4-tetrahydro-naphthalen-1-yl]-acetamide] as the molecule, how does the inhibition at 10 µM (human B1R) read?
**A.** 99.8%

**Q.** And the inhibition at 10 µM (B1R of the rat)?
**A.** 102%

**Q.** Which inhibition at 10 µM (human B1R) does the source give for `COc1cc(C)c(S(=O)(=O)N2CCn3cccc3C2COCC(=O)N2CCC(CN3CCN(C)CC3)C2)c(C)c1` (centres unmarked) [Example 37, 2-[[2-[(4-Methoxy-2,6-dimethyl-phenyl)sulfonyl]-1,2,3,4-tetrahydro-pyrrolo[1,2-a]pyrazin-1-yl]-methoxy]-1-[3-[(4-methyl-piperazin-1-yl)-methyl]-pyrrolidin-1-yl]-ethanone] here?
**A.** 97.8%

**Q.** And the inhibition at 10 µM (B1R of the rat)?
**A.** 104%

**Q.** With `Cc1cc(S(=O)(=O)N2CCn3cccc3C2CC(=O)NC2CCc3cc(CN4CCCCC4)ccc3C2)c(C)cc1Cl` (centres unmarked) [Example 25, 2-(2-(4-chloro-2,5-dimethylphenylsulfonyl)-1,2,3,4-tetrahydropyrrolo[1,2-a]pyrazin-1-yl)-N-(6-(piperidin-1-ylmethyl)-1,2,3,4-tetrahydronaphthalen-2-yl)acetamide] as the molecule, how does the inhibition at 10 µM (human B1R) read?
**A.** 96%

**Q.** What about the inhibition at 10 µM (B1R of the rat) of the same molecule?
**A.** 103%

**Q.** With `COc1ccc2cc(S(=O)(=O)N3CCn4cccc4C3CC(=O)NC3CCCc4cc(CNC(C)(C)C)ccc43)ccc2c1` (centres unmarked) [Example 114, N-[6-[(tert-Butylamino)-methyl]-1,2,3,4-tetrahydro-naphthalen-1-yl]-2-[2-[(6-methoxy-naphthalen-2-yl)sulfonyl]-1,2,3,4-tetrahydro-pyrrolo[1,2-a]pyrazin-1-yl]-acetamide] as the molecule, how does the inhibition at 10 µM (human B1R) read?
**A.** 100%

**Q.** And the inhibition at 10 µM (B1R of the rat)?
**A.** 99.6%

**Q.** What does the source list for `COc1ccc2cc(S(=O)(=O)N3CCn4cccc4C3CC(=O)NC3CCCc4cc(CN5CCCC5)ccc43)ccc2c1` (centres unmarked) [Example 98, 2-[2-[(6-Methoxy-naphthalen-2-yl)sulfonyl]-1,2,3,4-tetrahydro-pyrrolo[1,2-a]pyrazin-1-yl]-N-[6-(pyrrolidin-1-yl-methyl)-1,2,3,4-tetrahydro-naphthalen-1-yl]-acetamide]?
**A.** inhibition at 10 µM (human B1R): 99.9%; inhibition at 10 µM (B1R of the rat): 99.7%

**Q.** Which inhibition at 10 µM (human B1R) does the source give for `Cc1ccc(S(=O)(=O)N2CCn3cccc3C2CC(=O)NC2CCCc3cc(CN(C)C)ccc32)cc1` (centres unmarked) [Example 107, N-[6-(Dimethylaminomethyl)-1,2,3,4-tetrahydro-naphthalen-1-yl]-2-[2-(p-tolylsulfonyl)-1,2,3,4-tetrahydro-pyrrolo[1,2-a]pyrazin-1-yl]-acetamide] here?
**A.** 99.3%

**Q.** And the inhibition at 10 µM (B1R of the rat)?
**A.** 98.4%
